Measured values reported in US6506580B1, “Splice variants for human 5-HT4 serotonin receptor and their applications, in particular for screening” (Institut National de la Sante et de la Recherche Medicale …, priority 1997, dated 2003).

Assays:
Format in all cases: cell-based
receptor 5-HT4(b) = molecular target: T1, receptor 5-HT4(b) (Homo sapiens, UniProt Q13639); test: cAMP formation in transiently transfected COS-7 cells; conditions: COS-7, 1 μM agonist, 15 minutes
T1 construct: The entire coding region of the cDNAs of 5-HT4(a), 5-HT4(b), 5-HT4(c) and 5-T4(d) was subcloned; expressed in transfected cells; host or cells: COS-7 cells, transient, pRC/CMV vector; cDNA amplified from human brain and ileum RNA
T1 sequence (Q13639 whole entry): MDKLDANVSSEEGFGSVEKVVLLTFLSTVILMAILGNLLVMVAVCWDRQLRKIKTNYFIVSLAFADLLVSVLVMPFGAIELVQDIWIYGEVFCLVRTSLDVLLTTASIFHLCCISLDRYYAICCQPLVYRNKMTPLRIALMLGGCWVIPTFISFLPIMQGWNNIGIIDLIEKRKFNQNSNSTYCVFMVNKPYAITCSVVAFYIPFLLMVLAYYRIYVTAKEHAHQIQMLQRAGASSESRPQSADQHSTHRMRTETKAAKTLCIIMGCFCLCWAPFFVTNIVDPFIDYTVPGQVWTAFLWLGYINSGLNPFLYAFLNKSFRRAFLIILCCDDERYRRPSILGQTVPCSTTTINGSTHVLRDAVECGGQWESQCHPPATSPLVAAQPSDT
Description: (§1) The entire coding region of the cDNAs of 5-HT4(a), 5-HT4(b), 5-HT4(c) and 5-T4(d) was subcloned into a mammalian expression vector pRC/CMV (Invitrogen, Carlsbad, Calif.). The transfections were carried out using polyethyleneimine (PEI) as described in Boussif et al. (1995). The cells were transfected using a mixture of DNA and of PEI in a ratio of 20 μmol of PEI/mg of DNA in 0.9% NaCl. For the radioligand binding assays, the COS-7 cells were seeded into culture flasks of 1.5×10^4 mm^2 one day before the transfection, at a density of 1×10^7 cells/flask, incubated for six hours with plasmid DNA (150 μg/flask) and collected 48 hours after transfection. For the measurement of cAMP formation, the COS-7 cells were seeded onto twelve-well plates one day before transfection, at a density of 5×10^5 cells/well, incubated for six hours with plasmid DNA (4 to 8 μg/well according to the experiments) and assayed 24 hours after the transfection. The cells transfected with the receptor 5-HT4 cDNA constructs were compared with the “blank”-transfected cells, which were exposed to the unmodified pRC/CMV plasmid.
(§2) To measure intracellular cAMP accumulation, the transiently transfected COS-7 cells were incubated, 24 hours after transfection, in Dulbecco's modified Eagle medium (DMEM) containing 5 mM theophylline, 10 mM HEPES and 10 μM pargyline for 15 minutes at 37° C., in the presence of 5% CO2. […] The reaction was stopped by aspiration of the medium and addition of 500 μl of ice-cold ethanol. After one hour at room temperature, the cells were scraped, and everything was collected and freeze-dried. The pellet was resuspended in 350 μl of PBS and centrifuged for 5 min at 300 g. The cAMP was quantified in the supernatant using a radioimmunological assay (E.R.I.A. assay kit from Pasteur Diagnostics 79830). Student's t tests were carried out using the program Quick TEst.

receptor 5-HT4(a) = molecular target: T2, receptor 5-HT4(a) (Homo sapiens, UniProt Q13639); test: as above; conditions: COS-7, 1 μM agonist, 15 minutes
T2 construct: The entire coding region of the cDNAs of 5-HT4(a), 5-HT4(b), 5-HT4(c) and 5-T4(d) was subcloned; expressed in transfected cells; host or cells: COS-7 cells, transient, pRC/CMV vector
T2 sequence (Q13639 1-387 isoform Q13639-2): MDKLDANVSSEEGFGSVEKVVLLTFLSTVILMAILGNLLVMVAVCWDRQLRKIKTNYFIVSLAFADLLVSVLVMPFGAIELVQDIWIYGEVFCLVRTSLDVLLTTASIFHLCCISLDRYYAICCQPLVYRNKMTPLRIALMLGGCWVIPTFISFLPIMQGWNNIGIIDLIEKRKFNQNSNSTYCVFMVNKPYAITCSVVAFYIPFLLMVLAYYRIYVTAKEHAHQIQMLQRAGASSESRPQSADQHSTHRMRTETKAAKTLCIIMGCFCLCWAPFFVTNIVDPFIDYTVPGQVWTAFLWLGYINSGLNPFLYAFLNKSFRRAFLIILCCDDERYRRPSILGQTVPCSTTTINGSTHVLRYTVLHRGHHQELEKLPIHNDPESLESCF
Description: as §1, §2

[1] = test system: “blank”-transfected CHO cells; test: cAMP formation in control CHO cells; conditions: 1 μM
Description: The entire coding region of the 5-HT4(c) and 5-HT4(d) cDNAs was subcloned into a mammalian expression vector pRC/CMV (Invitrogen, Carlsbad, Calif.). The CHO cells are stably transfected by electroporation (250 V, 960 μF) with the plasmid PRc/CMV, containing the clone h5-HT4(c) or h5-HT4(d), cleaved with the restriction enzyme Kpn1 (10 μg of plasmid for 10^7 cells). The cells are cultured in HAM-F12 medium supplemented with 10% of heat-inactivated foetal calf serum. […] Twelve days later, the clones are individualized and cultured in 12-well plates. Clone selection is carried out by studying the stimulation of the cAMP formed in the presence of 1 μM serotonin. For the radioligand binding assays or for the measurement of cAMP formation, the cells transfected with the receptor 5-HT4 cDNA constructs were compared with the “blank”-transfected cells, which were exposed to the unmodified pRC/CMV plasmid.
(§3) To measure intracellular cAMP accumulation, the stably transfected CHO cells were incubated in the HAM-F12 medium containing 5 mM theophylline, 10 mM HEPES and 10 μM pargyline, for 15 minutes at 37° C. in the presence of 5% CO2. […] The reaction was stopped by aspiration of the medium and addition of 500 μl of ice-cold ethanol. […] The cAMP was quantified in the supernatant using a radio-immunological assay (E.R.I.A. assay kit from Immunotech, Marseilles). […]

receptor 5-HT4(c) = receptor 5-HT4(c) (Homo sapiens, UniProt Q13639); test: cAMP formation in transiently transfected COS-7 cells; design: The entire coding region of the cDNAs of 5-HT4(a), 5-HT4(b), 5-HT4(c) and 5-T4(d) was subcloned; expressed in transfected cells; host or cells: COS-7 cells, transient, pRC/CMV vector; cDNA amplified from human brain and ileum RNA; conditions: for increase in the basal cAMP level: 1 μM
Chain of receptor 5-HT4(c) (Q13639 1-380 isoform Q13639-4): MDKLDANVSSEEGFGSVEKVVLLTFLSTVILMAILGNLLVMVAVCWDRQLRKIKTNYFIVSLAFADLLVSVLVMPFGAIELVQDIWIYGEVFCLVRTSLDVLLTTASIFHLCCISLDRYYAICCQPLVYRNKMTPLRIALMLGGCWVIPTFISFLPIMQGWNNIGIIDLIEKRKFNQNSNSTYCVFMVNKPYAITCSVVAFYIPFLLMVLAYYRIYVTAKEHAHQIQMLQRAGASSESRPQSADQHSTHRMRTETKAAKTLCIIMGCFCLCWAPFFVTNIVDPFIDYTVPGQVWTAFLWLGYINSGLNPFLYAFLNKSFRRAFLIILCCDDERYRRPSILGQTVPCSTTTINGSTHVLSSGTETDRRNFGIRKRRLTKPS
Description: as §1, §2
ML10375 is capable of reducing the cAMP levels in the cells expressing the 5-HT4(c) and 5-HT4(d) isoforms in the absence of any stimulation of the receptor by 5-HT4 agonists. To test the hypothesis that ML10375 may constitute a reverse agonist for the human receptor 5-HT4, the 5-HT4(c) isoform was overexpressed in COS-7 cells in order to increase the frequency of the spontaneously active state of the receptor. The COS-7 cells were transfected with 4 to 8 μg of plasmid DNA per well in order to obtain an increase in the expression levels of the receptor 5-HT4(c). […] (FIG. 6B).

[2] = test system: “blank”-transfected COS-7 cells; test: cAMP formation in control COS-7 cells; conditions: 1 μM
Description: as §1, §2

h5-HT4(d) = molecular target: T3, h5-HT4(d) (Homo sapiens, UniProt Q13639); test: cAMP formation in stably transfected CHO cells; conditions: 1 μM, 15 minutes
T3 construct: The entire coding region of the 5-HT4(c) and 5-HT4(d) cDNAs was subcloned; expressed in transfected cells
T3 sequence (Q13639 1-360 isoform Q13639-3): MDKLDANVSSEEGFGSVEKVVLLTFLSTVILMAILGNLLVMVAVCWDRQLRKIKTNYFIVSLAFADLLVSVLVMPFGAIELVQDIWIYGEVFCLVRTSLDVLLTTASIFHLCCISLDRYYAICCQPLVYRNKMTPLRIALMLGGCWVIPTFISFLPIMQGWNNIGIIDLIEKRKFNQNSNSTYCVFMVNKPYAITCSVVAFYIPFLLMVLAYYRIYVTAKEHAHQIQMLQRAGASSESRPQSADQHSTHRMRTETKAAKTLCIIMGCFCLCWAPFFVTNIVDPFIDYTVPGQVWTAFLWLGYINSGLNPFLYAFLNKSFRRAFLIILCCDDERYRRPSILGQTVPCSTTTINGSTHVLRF
Description: (§4) The entire coding region of the 5-HT4(c) and 5-HT4(d) cDNAs was subcloned into a mammalian expression vector pRC/CMV (Invitrogen, Carlsbad, Calif.). The CHO cells are stably transfected by electroporation (250 V, 960 μF) with the plasmid PRc/CMV, containing the clone h5-HT4(c) or h5-HT4(d), cleaved with the restriction enzyme Kpn1 (10 μg of plasmid for 10^7 cells). The cells are cultured in HAM-F12 medium supplemented with 10% of heat-inactivated foetal calf serum. […] Twelve days later, the clones are individualized and cultured in 12-well plates. […] For the radioligand binding assays or for the measurement of cAMP formation, the cells transfected with the receptor 5-HT4 cDNA constructs were compared with the “blank”-transfected cells, which were exposed to the unmodified pRC/CMV plasmid.
as §3, with “ethanol. After one hour at room temperature, the cells were scraped, and everything was collected and freeze-dried.” for “ethanol.”

h5-HT4(c) = molecular target: T4, h5-HT4(c) (Homo sapiens, UniProt Q13639); test: cAMP formation in stably transfected CHO cells; conditions: 1 μM, 15 minutes
T4 construct: The entire coding region of the 5-HT4(c) and 5-HT4(d) cDNAs was subcloned; expressed in transfected cells
T4 sequence (Q13639 1-380 isoform Q13639-4): as the sequence (Q13639 1-380 isoform Q13639-4) above
Description: as §4
as §3, with “ethanol. After one hour at room temperature, the cells were scraped, and everything was collected and freeze-dried.” for “ethanol.”

receptor 5-HT4(d) = receptor 5-HT4(d) (Homo sapiens, UniProt Q13639); test: cAMP formation in transiently transfected COS-7 cells; design: The entire coding region of the cDNAs of 5-HT4(a), 5-HT4(b), 5-HT4(c) and 5-T4(d) was subcloned; expressed in transfected cells; host or cells: COS-7 cells, transient, pRC/CMV vector; cDNA amplified from human brain and ileum RNA; conditions: COS-7, 1 μM agonist, 15 minutes
Chain of receptor 5-HT4(d) (Q13639 1-360 isoform Q13639-3): as the sequence (Q13639 1-360 isoform Q13639-3) above
Description: The entire coding region of the cDNAs of 5-HT4(a), 5-HT4(b), 5-HT4(c) and 5-T4(d) was subcloned into a mammalian expression vector pRC/CMV (Invitrogen, Carlsbad, Calif.). The transfections were carried out using polyethyleneimine (PEI) as described in Boussif et al. (1995). The cells were transfected using a mixture of DNA and of PEI in a ratio of 20 μmol of PEI/mg of DNA in 0.9% NaCl. For the radioligand binding assays, the COS-7 cells were seeded into culture flasks of 1.5×10^4 mm^2 one day before the transfection, at a density of 1×10^7 cells/flask, incubated for six hours with plasmid DNA (150 μg/flask) and collected 48 hours after transfection. For the measurement of cAMP formation, the COS-7 cells were seeded onto twelve-well plates one day before transfection, at a density of 5×10^5 cells/well, incubated for six hours with plasmid DNA (4 to 8 μg/well according to the experiments) and assayed 24 hours after the transfection. […]
To measure intracellular cAMP accumulation, the transiently transfected COS-7 cells were incubated, 24 hours after transfection, in Dulbecco's modified Eagle medium (DMEM) containing 5 mM theophylline, 10 mM HEPES and 10 μM pargyline for 15 minutes at 37° C., in the presence of 5% CO2. […] The cAMP was quantified in the supernatant using a radioimmunological assay (E.R.I.A. assay kit from Pasteur Diagnostics 79830). […]

increase in cAMP concentration (receptor 5-HT4(b)): 85%
increase in cAMP concentration (receptor 5-HT4(a)): 82%
increase in cAMP concentration (receptor 5-HT4(c); COS-7, 1 μM agonist, 15 minutes): 64%
increase in the basal cAMP level (receptor 5-HT4(c); COS-7 transfected with 4 μg of plasmid DNA): 64%
increase in the basal cAMP level (receptor 5-HT4(c); COS-7 transfected with 8 μg of plasmid DNA): did not significantly increase
increase in cAMP concentration (h5-HT4(d)): 118%
increase in cAMP concentration (h5-HT4(c)): 91%
increase in cAMP concentration (receptor 5-HT4(d)): 77%
SMILES: NCCc1c[nH]c2ccc(O)cc12 [5-HT, 5-hydroxytryptamine]
effect on cAMP [1]: no effect
effect on basal adenylate cyclase activity / basal cAMP levels [2]: no effect
